What was measured:
Ba/F3-TPR-MET cells = target: T1, Ba/F3-TPR-MET cells (Homo sapiens, UniProt P08581); assay: CellTiter-Glo Cell Viability Assay, Ba/F3-TPR-MET; type: cell-based; details: 72 hours
T1 construct: fused on or other part: P12270 (Nucleoprotein TPR)
Protocol: (§1) Ba/F3-TPR-MET and Ba/F3-TPR-MET-D1228N cells were seeded at 3000 cells per well in a 96 well plate in 90 μL growth media and allowed to incubate overnight at 37° C. with 5% CO2. The following day, compounds were serially diluted from a 10 mM top dose for a 9-point 3-fold dilution curve in DMSO. Following a 100-fold dilution in growth media, a further 10-fold dilution was made into the cell plate for a final volume of 100 μL and 0.1% DMSO. Compounds and cells were incubated together for 72 hours at 37° C. with 5% CO2. The CellTiter-Glo® 2.0 Assay determines the number of viable cells in culture by quantifying ATP, which indicates the presence of metabolically active cells. Luminescence readout is directly proportional to the number of viable cells in culture. CellTiter-Glo reagent (Promega, G9243) and cell plates were allowed to equilibrate to room temperature for at least 15 min, then 100 μL of CellTiter-Glo was added to each well for a 1:1 ratio of reagent to media. Samples were placed on a shaker for 2 min prior to a 30 min incubation at room temperature protected from light. Luminescence was read on a Perkin Elmer Envision plate reader 2105 and used to calculate ICso values within the Dotmatics Knowledge Solutions Studies curve fitting environment (Dotmatics, Bishops Stortford, UK, CM23) and are presented in Table 2.

MET D1228N = target: T2, MET D1228N (Homo sapiens, UniProt P08581, D1228N); assay: MET D1228N Mobility Shift Assay; details: biochemical assay IC50; 100 μM ATP, 60 minute kinase reaction
T2 construct: purchased Signalchem M52-12IG
Protocol: (§2) Small molecule inhibition of MET D1228N kinase activity was evaluated using a fluorescence -based microfluidic mobility shift assay. MET D1228N catalyzes the production of ADP from ATP during phosphoryl transfer to the substrate peptide, FLPeptide30 (5-FAM-KKKKEEIYFFF -CONH2) (Perkin Elmer, 760430). MET D1228N enzyme (Signalchem, M52-12IG) at 0.313 nM was prepared with 10 mM MgCl2 and 1.5 μM substrate peptide in a buffer containing 50 mM HEPES, 1 mM EGTA, 0.01% Brij-35, 0.05% BSA, and 2 mM DTT and pre-incubated at room temperature for 30 min prior to the start of the reaction. 100 μM ATP was added to start the reaction. The mobility shift assay electrophoretically separates the fluorescently labeled peptides (substrate and phosphorylated product) following the 60 minute kinase reaction. The reaction was terminated by addition of 0.5 M EDTA. Both substrate and product were measured and the ratio of these values used to generate % conversion of substrate to product by the LabChip EZ reader (Perkin Elmer). ICso values were calculated using the inhibition of conversion ratio using Dotmatics Knowledge Solutions Studies curve fitting environment (Dotmatics, Bishops Stortford, UK, CM23) and are presented in Table 2.

[1] = target: T3, Ba/F3-TPR-MET-D1228N cells (Homo sapiens, UniProt P08581, D1228N, cells depend on it); assay: CellTiter-Glo Cell Viability Assay, Ba/F3-TPR-MET-D1228N; type: cell-based; details: 72 hours
T3 construct: fused on or other part: P12270 (Nucleoprotein TPR)
Protocol: as §1

MET = target: T4, MET (Homo sapiens, UniProt P08581); assay: MET Mobility Shift Assay; details: biochemical assay IC50; 100 μM ATP, 60 minute kinase reaction
T4 construct: purchased Carna Biosciences 08-151
Protocol: as §2, with “MET” for “MET D1228N”, “a fluorescence-based” for “a fluorescence -based”, “FLPeptide30 (5-FAM-KKKKEEIYFFF-CONH2)” for “FLPeptide30 (5-FAM-KKKKEEIYFFF -CONH2)”, “MET enzme (Carna Biosciences, 08-151)” for “MET D1228N enzyme (Signalchem, M52-12IG)”, “at 0.625” for “at 0.313”

T1 sequence (P08581 whole entry, change not shown, the tested form may be a part): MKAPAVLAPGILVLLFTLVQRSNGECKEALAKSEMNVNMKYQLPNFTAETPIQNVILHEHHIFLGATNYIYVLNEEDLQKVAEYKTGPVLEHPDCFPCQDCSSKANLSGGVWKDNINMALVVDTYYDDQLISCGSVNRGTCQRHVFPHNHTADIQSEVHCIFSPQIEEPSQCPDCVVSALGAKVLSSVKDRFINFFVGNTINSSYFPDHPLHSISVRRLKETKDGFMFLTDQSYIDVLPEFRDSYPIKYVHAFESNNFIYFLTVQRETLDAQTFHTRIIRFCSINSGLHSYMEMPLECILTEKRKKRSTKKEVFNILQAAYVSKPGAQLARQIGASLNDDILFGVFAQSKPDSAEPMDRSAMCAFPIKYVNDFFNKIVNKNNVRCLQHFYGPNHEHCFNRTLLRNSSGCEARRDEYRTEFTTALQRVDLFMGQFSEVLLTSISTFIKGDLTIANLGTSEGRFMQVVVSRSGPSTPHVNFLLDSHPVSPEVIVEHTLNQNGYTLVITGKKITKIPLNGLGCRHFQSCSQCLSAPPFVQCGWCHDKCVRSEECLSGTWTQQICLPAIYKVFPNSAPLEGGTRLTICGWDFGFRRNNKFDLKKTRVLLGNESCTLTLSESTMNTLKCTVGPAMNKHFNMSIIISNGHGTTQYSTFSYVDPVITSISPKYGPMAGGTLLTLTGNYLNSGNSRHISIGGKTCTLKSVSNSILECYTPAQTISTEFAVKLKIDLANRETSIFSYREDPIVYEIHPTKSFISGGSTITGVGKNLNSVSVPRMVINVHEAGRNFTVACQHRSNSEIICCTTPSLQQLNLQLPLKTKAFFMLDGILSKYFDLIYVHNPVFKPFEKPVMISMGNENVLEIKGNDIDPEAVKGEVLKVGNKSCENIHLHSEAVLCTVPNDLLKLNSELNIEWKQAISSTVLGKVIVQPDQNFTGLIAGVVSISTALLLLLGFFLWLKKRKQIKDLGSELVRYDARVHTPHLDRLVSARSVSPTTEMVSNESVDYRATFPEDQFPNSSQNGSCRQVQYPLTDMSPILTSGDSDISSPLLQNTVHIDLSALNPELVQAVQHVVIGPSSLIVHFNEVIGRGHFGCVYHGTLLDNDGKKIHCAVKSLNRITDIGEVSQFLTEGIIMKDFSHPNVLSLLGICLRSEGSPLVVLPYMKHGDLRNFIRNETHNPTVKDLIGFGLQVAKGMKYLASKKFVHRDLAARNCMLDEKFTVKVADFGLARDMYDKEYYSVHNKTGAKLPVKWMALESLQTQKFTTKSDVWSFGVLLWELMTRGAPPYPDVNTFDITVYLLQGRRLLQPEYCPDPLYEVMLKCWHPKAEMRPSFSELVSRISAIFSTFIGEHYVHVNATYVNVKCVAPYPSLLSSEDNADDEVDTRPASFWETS
T3 sequence (P08581 whole entry D1228N, the tested form may be a part): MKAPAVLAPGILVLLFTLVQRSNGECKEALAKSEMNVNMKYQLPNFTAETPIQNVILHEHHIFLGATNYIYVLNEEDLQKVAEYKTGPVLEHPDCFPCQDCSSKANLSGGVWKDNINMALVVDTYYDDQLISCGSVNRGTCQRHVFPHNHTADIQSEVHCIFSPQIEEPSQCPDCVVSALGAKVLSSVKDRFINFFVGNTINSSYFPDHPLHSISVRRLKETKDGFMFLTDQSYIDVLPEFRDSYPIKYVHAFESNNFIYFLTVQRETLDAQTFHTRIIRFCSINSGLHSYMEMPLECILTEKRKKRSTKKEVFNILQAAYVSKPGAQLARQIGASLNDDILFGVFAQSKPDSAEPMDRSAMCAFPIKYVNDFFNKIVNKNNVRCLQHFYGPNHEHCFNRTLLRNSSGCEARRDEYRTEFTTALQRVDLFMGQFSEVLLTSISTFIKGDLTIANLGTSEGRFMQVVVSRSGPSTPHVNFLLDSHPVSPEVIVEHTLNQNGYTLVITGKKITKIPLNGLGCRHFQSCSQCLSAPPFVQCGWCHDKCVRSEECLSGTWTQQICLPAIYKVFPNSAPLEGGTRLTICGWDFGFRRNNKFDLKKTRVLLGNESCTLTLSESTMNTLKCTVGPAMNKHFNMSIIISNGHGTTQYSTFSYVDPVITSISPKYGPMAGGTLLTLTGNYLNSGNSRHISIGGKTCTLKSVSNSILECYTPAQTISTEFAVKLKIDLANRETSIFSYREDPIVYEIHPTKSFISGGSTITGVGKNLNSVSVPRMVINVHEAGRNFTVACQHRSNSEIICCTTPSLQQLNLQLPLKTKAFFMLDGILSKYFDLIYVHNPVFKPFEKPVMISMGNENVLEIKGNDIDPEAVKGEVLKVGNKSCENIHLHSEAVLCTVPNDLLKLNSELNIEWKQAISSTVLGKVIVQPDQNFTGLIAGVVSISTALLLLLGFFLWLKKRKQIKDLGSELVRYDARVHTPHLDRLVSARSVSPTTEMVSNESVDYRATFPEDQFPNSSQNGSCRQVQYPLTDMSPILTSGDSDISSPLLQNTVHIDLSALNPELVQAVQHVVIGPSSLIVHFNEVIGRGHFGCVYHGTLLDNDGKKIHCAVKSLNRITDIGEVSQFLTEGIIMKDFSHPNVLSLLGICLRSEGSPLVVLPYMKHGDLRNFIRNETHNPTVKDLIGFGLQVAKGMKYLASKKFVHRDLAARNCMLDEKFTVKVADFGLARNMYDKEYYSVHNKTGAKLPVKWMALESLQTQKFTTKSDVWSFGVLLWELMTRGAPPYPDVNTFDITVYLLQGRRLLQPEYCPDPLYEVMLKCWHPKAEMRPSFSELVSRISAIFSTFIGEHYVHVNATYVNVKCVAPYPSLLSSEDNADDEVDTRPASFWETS
T4 sequence (P08581 25-1390): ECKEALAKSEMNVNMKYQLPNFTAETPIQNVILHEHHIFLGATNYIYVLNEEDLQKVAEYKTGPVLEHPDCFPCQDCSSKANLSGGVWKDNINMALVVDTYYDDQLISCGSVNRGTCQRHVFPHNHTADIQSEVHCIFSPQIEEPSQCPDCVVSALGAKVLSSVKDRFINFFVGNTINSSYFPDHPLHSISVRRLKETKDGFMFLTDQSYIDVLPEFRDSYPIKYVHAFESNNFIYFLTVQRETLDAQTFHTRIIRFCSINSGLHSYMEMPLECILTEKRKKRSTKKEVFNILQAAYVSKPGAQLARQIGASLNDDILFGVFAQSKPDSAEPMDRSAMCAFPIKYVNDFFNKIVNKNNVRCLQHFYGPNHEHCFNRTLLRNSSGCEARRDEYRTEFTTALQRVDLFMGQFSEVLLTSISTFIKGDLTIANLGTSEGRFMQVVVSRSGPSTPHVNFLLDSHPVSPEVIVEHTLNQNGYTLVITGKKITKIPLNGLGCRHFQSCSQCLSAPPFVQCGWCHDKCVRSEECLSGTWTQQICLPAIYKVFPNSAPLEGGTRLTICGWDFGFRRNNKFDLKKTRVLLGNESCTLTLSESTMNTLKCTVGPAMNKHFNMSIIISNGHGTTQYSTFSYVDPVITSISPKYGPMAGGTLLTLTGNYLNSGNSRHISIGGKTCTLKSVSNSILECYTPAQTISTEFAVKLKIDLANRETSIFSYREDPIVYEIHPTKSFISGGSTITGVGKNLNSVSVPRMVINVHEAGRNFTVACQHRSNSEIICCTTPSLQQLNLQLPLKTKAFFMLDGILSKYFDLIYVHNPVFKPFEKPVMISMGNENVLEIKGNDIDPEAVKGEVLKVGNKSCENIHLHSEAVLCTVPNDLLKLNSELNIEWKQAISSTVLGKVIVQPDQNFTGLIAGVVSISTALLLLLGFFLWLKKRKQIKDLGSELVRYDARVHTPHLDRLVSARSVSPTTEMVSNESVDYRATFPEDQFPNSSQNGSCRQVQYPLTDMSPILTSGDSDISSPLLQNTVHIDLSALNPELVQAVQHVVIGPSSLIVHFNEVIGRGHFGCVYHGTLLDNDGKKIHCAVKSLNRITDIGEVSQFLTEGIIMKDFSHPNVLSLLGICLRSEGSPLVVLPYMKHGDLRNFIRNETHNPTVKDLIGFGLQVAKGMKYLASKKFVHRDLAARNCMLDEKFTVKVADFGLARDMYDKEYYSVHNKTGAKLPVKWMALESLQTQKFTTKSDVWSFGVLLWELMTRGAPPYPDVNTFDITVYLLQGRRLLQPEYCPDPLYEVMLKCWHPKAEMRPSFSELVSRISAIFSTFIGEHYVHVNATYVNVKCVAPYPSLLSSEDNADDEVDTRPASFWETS

| IC50 (MET D1228N) [µM] | IC50 (MET) [µM] | SMILES | EC50 (Ba/F3-TPR-MET cells) [µM] | EC50 [1] [µM] |
| --- | --- | --- | --- | --- |
| ≤ 0.1 | ≤ 0.1 | COc1ccncc1C(=O)Nc1cc(F)c(Oc2ccnc3cc(OCC(C)(C)O)ccc23)c(F)c1 [Example 40, N-(3,5-difluoro-4-{[7-(2-hydroxy-2-methylpropoxy)quinolin-4-yl]oxy}phenyl)-4-methoxypyridine-3-carboxamide] | 0.1 to 1 | 0.1 to 1 |
| ≤ 0.1 | ≤ 0.1 | COc1ccncc1C(=O)Nc1cc(F)c(Oc2ccnc3cc(OCCO)ccc23)c(F)c1 [Example 41, N-(3,5-difluoro-4-((7-(2-hydroxyethoxy)quinolin-4-yl)oxy)phenyl)-4-methoxypyridine-3-carboxamide] | 0.1 to 1 | ≤ 0.1 |
| ≤ 0.1 | ≤ 0.1 | COCCOc1ccc2c(Oc3c(F)cc(NC(=O)c4cnccc4OC)cc3F)ccnc2c1 [Example 42, N-(3,5-difluoro-4-{[7-(2-methoxyethoxy)quinolin-4-yl]oxy}phenyl)-4-methoxypyridine-3-carboxamide] | 0.1 to 1 | ≤ 0.1 |
| ≤ 0.1 | ≤ 0.1 | CNCCOc1cc2nccc(Oc3c(F)cc(NC(=O)c4cnccc4OC(F)F)cc3F)c2cc1OC [Example 47, N-(3,5-difluoro-4-((6-methoxy-7-(2-(methylamino)ethoxy)quinolin-4-yl)oxy)phenyl)-4-(difluoromethoxy)pyridine-3-carboxamide] | 0.1 to 1 | 0.1 to 1 |
| ≤ 0.1 | ≤ 0.1 | CCc1ccncc1C(=O)Nc1cc(F)c(Oc2ccnc3cc(OCCNC)c(OC)cc23)c(F)c1 [Example 49, N-(3,5-difluoro-4-((6-methoxy-7-(2-(methylamino)ethoxy)quinolin-4-yl)oxy)phenyl)-4-ethylpyridine-3-carboxamide] | 0.1 to 1 | 0.1 to 1 |
| ≤ 0.1 | ≤ 0.1 | CCCOc1ccncc1C(=O)Nc1cc(F)c(Oc2ccnc3cc(OCCNC)c(OC)cc23)c(F)c1 [Example 56, N-[3,5-difluoro-4-({6-methoxy-7-[2-(methylamino)ethoxy]quinolin-4-yl}oxy)phenyl]-4-propoxypyridine-3-carboxamide] | ≤ 0.1 | ≤ 0.1 |
| ≤ 0.1 | ≤ 0.1 | CNCCOc1cc2nccc(Oc3c(F)cc(NC(=O)c4cnccc4OC(C)C)cc3F)c2cc1OC [Example 59, N-[3,5-difluoro-4-({6-methoxy-7-[2-(methylamino)ethoxy]quinolin-4-yl}oxy)phenyl]-4-isopropoxypyridine-3-carboxamide] | ≤ 0.1 | ≤ 0.1 |

Further lines, the compound ahead of its results:

| SMILES | IC50 (MET D1228N) [µM] | IC50 (MET) [µM] | EC50 (Ba/F3-TPR-MET cells) [µM] | EC50 [1] [µM] |
| --- | --- | --- | --- | --- |
| COCCOc1cc2nccc(Oc3c(F)cc(NC(=O)c4cnccc4OC)cc3F)c2cc1OCCOC [Example 43, N-(4-((6,7-bis(2-methoxyethoxy)quinolin-4-yl)oxy)-3,5-difluorophenyl)-4-methoxypyridine-3-carboxamide] | ≤ 0.1 | ≤ 0.1 | ≤ 0.1 | ≤ 0.1 |
| CNCCOc1cc2nccc(Oc3c(F)cc(NC(=O)c4cnc(F)cc4OC)cc3F)c2cc1OC [Example 44, N-(3,5-difluoro-4-((6-methoxy-7-(2-(methylamino)ethoxy)quinolin-4-yl)oxy)phenyl)-6-fluoro-4-methoxypyridine-3-carboxamide] | ≤ 0.1 | ≤ 0.1 | 0.1 to 1 | 0.1 to 1 |
| CNCCOc1cc2nccc(Oc3c(F)cc(NC(=O)c4cnc(C)cc4OC)cc3F)c2cc1OC [Example 45, N-(3,5-difluoro-4-((6-methoxy-7-(2-(methylamino)ethoxy)quinolin-4-yl)oxy)phenyl)-4-methoxy-6-methylpyridine-3-carboxamide] | ≤ 0.1 | ≤ 0.1 | 0.1 to 1 | 0.1 to 1 |
| CNCCOc1cc2nccc(Oc3c(F)cc(NC(=O)c4cnc(NCCOC)cc4OC)cc3F)c2cc1OC [Example 46, N-(3,5-difluoro-4-((6-methoxy-7-(2-(methylamino)ethoxy)quinolin-4-yl)oxy)phenyl)-4-methoxy-6-((2-methoxyethyl)amino)pyridine-3-carboxamide] | ≤ 0.1 | ≤ 0.1 | ≤ 0.1 | ≤ 0.1 |
| CNCCOc1cc2nccc(Oc3c(F)cc(NC(=O)c4cnccc4OC)c(F)c3F)c2cc1OC [Example 50, 4-methoxy-N-(2,3,5-trifluoro-4-((6-methoxy-7-(2-(methylamino)ethoxy)quinolin-4-yl)oxy)phenyl)pyridine-3-carboxamide] | ≤ 0.1 | ≤ 0.1 | ≤ 0.1 | ≤ 0.1 |
| CCOc1ccncc1C(=O)Nc1cc(F)c(Oc2ccnc3cc(OCCNC)c(OC)cc23)c(F)c1F [Example 51, 4-ethoxy-N-[2,3,5-trifluoro-4-({6-methoxy-7-[2-(methylamino)ethoxy]quinolin-4-yl}oxy)phenyl]pyridine-3-carboxamide] | ≤ 0.1 | ≤ 0.1 | 0.1 to 1 | ≤ 0.1 |
| CCCOc1ccncc1C(=O)Nc1cc(F)c(Oc2ccnc3cc(OCCNC)c(OC)cc23)cc1F [Example 52, N-(2,5-difluoro-4-((6-methoxy-7-(2-(methylamino)ethoxy)quinolin-4-yl)oxy)phenyl)-4-propoxypyridine-3-carboxamide] | ≤ 0.1 | ≤ 0.1 | 0.1 to 1 | 0.1 to 1 |
| COc1cc2c(Oc3c(F)cc(NC(=O)c4cnccc4OC4CC4)cc3F)ccnc2cc1OCCCN1CCOCC1 [Example 53, 4-cyclopropoxy-N-[3,5-difluoro-4-({6-methoxy-7-[3-(morpholin-4-yl)propoxy]quinolin-4-yl}oxy)phenyl]pyridine-3-carboxamide] | ≤ 0.1 | ≤ 0.1 | ≤ 0.1 | ≤ 0.1 |
| CNCCOc1cc2nccc(Oc3c(F)cc(NC(=O)c4cnccc4OC4CC4)cc3F)c2cc1OC [Example 54, 4-cyclopropoxy-N-[3,5-difluoro-4-({6-methoxy-7-[2-(methylamino)ethoxy]quinolin-4-yl}oxy)phenyl]pyridine-3-carboxamide] | ≤ 0.1 | ≤ 0.1 | ≤ 0.1 | ≤ 0.1 |
| CNCCOc1cc2nccc(Oc3c(F)cc(NC(=O)c4cnccc4OC4CCC4)cc3F)c2cc1OC [Example 55, 4-cyclobutoxy-N-(3,5-difluoro-4-((6-methoxy-7-(2-(methylamino)ethoxy)quinolin-4-yl)oxy)phenyl)pyridine-3-carboxamide] | ≤ 0.1 | ≤ 0.1 | 0.1 to 1 | ≤ 0.1 |
| CNCCOc1cc2nccc(Oc3c(F)cc(NC(=O)c4cnccc4OC4CC(F)(F)C4)cc3F)c2cc1OC [Example 57, N-[3,5-difluoro-4-({6-methoxy-7-[2-(methylamino)ethoxy]quinolin-4-yl}oxy)phenyl]-4-(3,3-difluorocyclobutoxy)pyridine-3-carboxamide] | ≤ 0.1 | ≤ 0.1 | 0.1 to 1 | 0.1 to 1 |
| CNCCOc1cc2nccc(Oc3c(F)cc(NC(=O)c4cnccc4OCCCF)cc3F)c2cc1OC [Example 58, N-[3,5-difluoro-4-({6-methoxy-7-[2-(methylamino)ethoxy]quinolin-4-yl}oxy)phenyl]-4-(3-fluoropropoxy)pyridine-3-carboxamide] | ≤ 0.1 | ≤ 0.1 | ≤ 0.1 | ≤ 0.1 |

Reference: patent US11753395B2 (Kinnate Biopharma Inc., priority 2021, dated 2023)
